Assay results published in PubChem BioAssay AID330 (DTP/NCI, 2004).
Where “and” joins values, the source holds several entries; their conditions need not be identical. Equal values may be shown once. Toxic doses and inconclusive results are not listed. The calls were made as follows: active = survival T/C of 150% or more; inactive = T/C below 125% in these data.

Tested on: P388 leukemia ip, CD2F1 mice, survival T/C
Assay: NCI In Vivo Anticancer Drug Screen. Data for tumor model P388 Leukemia (intraperitoneal) in CD2F1 (CDF1) mice
Settings: endpoint: median survival time, higher = longer survival
Summary of the method: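 Mice carrying the transplanted tumor received test compound or vehicle. Survival was recorded in each group, and the value is the treated-group measurement divided by that of the vehicle-treated control group.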

[1] = dose: 50.0 mg/kg/injection, schedule: Q01DX009 (ip), vehicle: saline with Tween-80
[2] = dose: 50.0 mg/kg/injection, schedule: Q01DX005 (ip), vehicle: saline with Tween-80
[3] = dose: 100.0 mg/kg/injection, schedule: Q01DX005 (ip), vehicle: saline with Tween-80

Measured: T/C

CNc1nc(N(C)C)nc(N(C)C)n1
inactive: dose: 6.25 mg/kg/injection, schedule: Q01DX009 (ip), vehicle: water 105 % of control and 96 % of control | dose: 12.5 mg/kg/injection, schedule: Q01DX009 (ip), vehicle: water 105 % of control | dose: 16.0 mg/kg/injection, schedule: Q03HX008 (ip), vehicle: water 102 % of control | dose: 16.0 mg/kg/injection, schedule: Q03HX016 (ip), vehicle: water 96 % of control | dose: 16.0 mg/kg/injection, schedule: Q03HX024 (ip), vehicle: water 96 % of control | dose: 25.0 mg/kg/injection, schedule: Q01DX009 (ip), vehicle: water 105 % of control | dose: 30.0 mg/kg/injection, schedule: Q01DX009 (ip), vehicle: water 104 % of control | dose: 32.0 mg/kg/injection, schedule: Q01DX005 (ip), vehicle: water 99 % of control | dose: 32.0 mg/kg/injection, schedule: Q01DX009 (ip), vehicle: water 86 % of control | dose: 32.0 mg/kg/injection, schedule: Q01DX009 (oral), vehicle: water 110 % of control | dose: 32.0 mg/kg/injection, schedule: Q01DX009 (sc), vehicle: water 106 % of control | dose: 32.0 mg/kg/injection, schedule: Q03HX008 (ip), vehicle: water 103 % of control | dose: 32.0 mg/kg/injection, schedule: Q03HX016 (ip), vehicle: water 100 % of control | dose: 32.0 mg/kg/injection, schedule: Q03HX024 (ip), vehicle: water 114 % of control | dose: 44.0 mg/kg/injection, schedule: Q01DX009 (ip), vehicle: water 104 % of control | dose: 50.0 mg/kg/injection, schedule: Q01DX009 (ip), vehicle: water 112 % of control | dose: 64.0 mg/kg/injection, schedule: Q01DX001 (ip), vehicle: water 102 % of control | dose: 64.0 mg/kg/injection, schedule: Q01DX001 (oral), vehicle: water 103 % of control | dose: 64.0 mg/kg/injection, schedule: Q01DX005 (ip), vehicle: water 109 % of control | dose: 64.0 mg/kg/injection, schedule: Q01DX009 (ip), vehicle: water 93 % of control | dose: 64.0 mg/kg/injection, schedule: Q01DX009 (oral), vehicle: water 115 % of control | dose: 64.0 mg/kg/injection, schedule: Q01DX009 (sc), vehicle: water 117 % of control | dose: 64.0 mg/kg/injection, schedule: Q04DX003 (ip), vehicle: water 105 % of control | dose: 64.0 mg/kg/injection, schedule: Q08DX002 (ip), vehicle: water 103 % of control | dose: 67.0 mg/kg/injection, schedule: Q01DX009 (ip), vehicle: water 116 % of control | dose: 128.0 mg/kg/injection, schedule: Q01DX001 (ip), vehicle: water 102 % of control | dose: 128.0 mg/kg/injection, schedule: Q01DX001 (oral), vehicle: water 101 % of control | dose: 128.0 mg/kg/injection, schedule: Q01DX005 (ip), vehicle: water 99 % of control | dose: 128.0 mg/kg/injection, schedule: Q01DX009 (oral), vehicle: water 96 % of control | dose: 128.0 mg/kg/injection, schedule: Q01DX009 (sc), vehicle: water 86 % of control | dose: 128.0 mg/kg/injection, schedule: Q04DX003 (ip), vehicle: water 112 % of control | dose: 128.0 mg/kg/injection, schedule: Q08DX002 (ip), vehicle: water 114 % of control | dose: 256.0 mg/kg/injection, schedule: Q01DX001 (oral), vehicle: water 100 % of control

CN(C)c1ccc(/C=C2/CCC2=O)cc1
inactive: dose: 100.0 mg/kg/injection, schedule: Q04DX003 (ip), vehicle: Klucel (hydroxypropylcellulose) (HPC) 96 % of control | dose: 200.0 mg/kg/injection, schedule: Q04DX003 (ip), vehicle: Klucel (hydroxypropylcellulose) (HPC) 97 % of control | dose: 400.0 mg/kg/injection, schedule: Q04DX003 (ip), vehicle: Klucel (hydroxypropylcellulose) (HPC) 95 % of control

CN(C)CCC1(C)OCCC2=C1Cc1ccccc12 (stereo not given)
inactive: [1] 91 % of control | dose: 100.0 mg/kg/injection, schedule: Q01DX009 (ip), vehicle: saline with Tween-80 99 % of control

Cn1c2ccccc2c2oc(-c3nn[nH]n3)cc(=O)c21
inactive: dose: 60.0 mg/kg/injection, schedule: Q01DX005 (ip), vehicle: Klucel (hydroxypropylcellulose) (HPC) 97 % of control | dose: 120.0 mg/kg/injection, schedule: Q01DX005 (ip), vehicle: Klucel (hydroxypropylcellulose) (HPC) 105 % of control | dose: 240.0 mg/kg/injection, schedule: Q01DX005 (ip), vehicle: Klucel (hydroxypropylcellulose) (HPC) 100 % of control

CN(c1ccccc1)C1CS(=O)(=O)OC2=C1CN(Cc1ccccc1)CC2 (stereo not given)
inactive: dose: 100.0 mg/kg/injection, schedule: Q04DX003 (ip), vehicle: saline with Tween-80 99 % of control | dose: 200.0 mg/kg/injection, schedule: Q04DX003 (ip), vehicle: saline with Tween-80 94 % of control | dose: 400.0 mg/kg/injection, schedule: Q04DX003 (ip), vehicle: saline with Tween-80 90 % of control

CN=S(=O)(OCCCCCOS(=O)(=NC)c1ccccc1)c1ccccc1 (stereo not given)
inactive: [1] 124 % of control
active: dose: 200.0 mg/kg/injection, schedule: Q01DX009 (ip), vehicle: saline with Tween-80 158 % of control and 170 % of control

Nc1cc(=O)[nH]c(=S)n1-c1ccccn1
inactive: dose: 75.0 mg/kg/injection, schedule: Q01DX001 (ip), vehicle: saline with Tween-80 104 % of control | dose: 150.0 mg/kg/injection, schedule: Q01DX001 (ip), vehicle: saline with Tween-80 100 % of control | dose: 300.0 mg/kg/injection, schedule: Q01DX001 (ip), vehicle: saline with Tween-80 104 % of control

CCOc1ccc(NC(=O)c2c(N)n(C)c(=O)n(C)c2=O)cc1
inactive: dose: 50.0 mg/kg/injection, schedule: Q01DX009 (ip), vehicle: Klucel (hydroxypropylcellulose) (HPC) 88 % of control | dose: 100.0 mg/kg/injection, schedule: Q01DX009 (ip), vehicle: Klucel (hydroxypropylcellulose) (HPC) 93 % of control

O=C(OC1OC(COCc2ccccc2)C(OCc2ccccc2)C(OCc2ccccc2)C1OCc1ccccc1)c1ccc([N+](=O)[O-])cc1 (stereo not given)
inactive: dose: 100.0 mg/kg/injection, schedule: Q01DX001 (ip), vehicle: saline with Tween-80 92 % of control | dose: 200.0 mg/kg/injection, schedule: Q01DX001 (ip), vehicle: saline with Tween-80 90 % of control

CCCOc1ccc2c(NCCCCNc3c4ccccc4nc4cc(OCCC)ccc34)c3ccccc3nc2c1
inactive: dose: 0.62 mg/kg/injection, schedule: Q01DX009 (ip), vehicle: other 98 % of control | dose: 1.25 mg/kg/injection, schedule: Q01DX009 (ip), vehicle: other 109 % of control | dose: 2.5 mg/kg/injection, schedule: Q01DX009 (ip), vehicle: other 98 % of control | dose: 5.0 mg/kg/injection, schedule: Q01DX009 (ip), vehicle: other 107 % of control | dose: 10.0 mg/kg/injection, schedule: Q01DX009 (ip), vehicle: other 107 % of control

O=C(Nc1ccc(N=C=S)cc1Cl)c1cc(Br)cc(Br)c1O
inactive: dose: 25.0 mg/kg/injection, schedule: Q01DX001 (ip), vehicle: Klucel (hydroxypropylcellulose) (HPC) 106 % of control | dose: 50.0 mg/kg/injection, schedule: Q01DX001 (ip), vehicle: Klucel (hydroxypropylcellulose) (HPC) 100 % of control | dose: 100.0 mg/kg/injection, schedule: Q01DX001 (ip), vehicle: Klucel (hydroxypropylcellulose) (HPC) 92 % of control and 95 % of control

O=CC(CO)CC(C=O)n1cnc2c(=O)[nH]cnc21 (stereo not given)
active: dose: 150.0 mg/kg/injection, schedule: Q01DX005 (ip), vehicle: saline 155 % of control and 158 % of control | dose: 300.0 mg/kg/injection, schedule: Q01DX005 (ip), vehicle: saline 165 % of control and 174 % of control

Cc1ccc(NC(=O)c2cc3ccccc3cc2O)c(C)c1.Cc1ccc(NC(=O)c2cc3ccccc3cc2[O-])c(C)c1.[Ni+2]
inactive: dose: 1.56 mg/kg/injection, schedule: Q01DX009 (ip), vehicle: saline with Tween-80 109 % of control | dose: 3.12 mg/kg/injection, schedule: Q01DX009 (ip), vehicle: saline with Tween-80 89 % of control | dose: 6.12 mg/kg/injection, schedule: Q01DX009 (ip), vehicle: saline with Tween-80 97 % of control | dose: 6.25 mg/kg/injection, schedule: Q01DX009 (ip), vehicle: saline 108 % of control

Oc1cccc([C@@]23CCCC[C@H]2CN(CC2CC2)CC3)c1
inactive: [2] 90 % of control | [3] 111 % of control

CCOc1c(N=Nc2ccccc2)c(C)nn1C(=S)SC
inactive: dose: 60.0 mg/kg/injection, schedule: Q01DX005 (ip), vehicle: Klucel + Tween-80 110 % of control | dose: 120.0 mg/kg/injection, schedule: Q01DX005 (ip), vehicle: Klucel + Tween-80 108 % of control | dose: 240.0 mg/kg/injection, schedule: Q01DX005 (ip), vehicle: Klucel + Tween-80 100 % of control

CCC12OC(COc3ccccc3)CN1CCS2 (stereo not given)
inactive: [2] 98 % of control | [3] 107 % of control | dose: 200.0 mg/kg/injection, schedule: Q01DX005 (ip), vehicle: saline with Tween-80 99 % of control
